Reference: patent US20260000656A1, “ANTIFUNGAL AGENTS WITH ENHANCED ACTIVITY IN ACIDIC PH” (Scynexis, Inc., priority 2017, published 2026)
Converted amounts (≈) assume the structure as drawn. Where two headings read alike, the source gives them in different places.

Assays:
[1] = tested on: C. glabrata isolates; experiment: Broth microdilution susceptibility (CLSI M27-A3) at different medium pH; assay type: cell-based, Candida glabrata; details: Nakaseomyces glabratus, 24 h; for MIC50: read-out: MIC50; for MIC90: read-out: MIC90
Procedure: (§1) Ten strains each of C. glabrata and C. albicans vaginal isolates were tested. The strains were obtained from recent clinical trial patients with vulvovaginal candidiasis (VVC) prior to treatment. Candida strains were obtained from the Mycology Reference Library (MRL) at Case Western Reserve University School of Medicine, Ohio, United States.
(§2) Susceptibility testing was performed using a broth microdilution method, according to CLSI M27-A3 guidelines (CLSI. 2008. Reference Method for Broth Dilution Antifungal Susceptibility Testing of Yeasts; Approved Standard—Third Edition. Clinical and Laboratory Standards Institute, CLSI document M27-A3). Antifungals and concentrations tested were SCY-078 and micafungin (both at concentrations within the range of 0.015 to 8 μg/ml) and fluconazole (at concentrations within the range of 0.125 to 64 μg/ml). A 0.1-ml C. albicans and C. glabrata inoculum of 0.5-2.5×10^3 blastospores/ml in RPMI 1640 medium was added to each microdilution well. ATCC strains of Candida parapsilosis and Candida krusei QC isolates were also included concurrently to ensure quality control. Antifungal susceptibility testing was carried out for each isolate in RPMI 1640 at pH 7 (to mimic RPMI medium used in testing the susceptibility of yeast by the CLSI M-27A3 document), pH 5.7, and pH 4.5 (to mimic the pH of the vaginal cavity) by adjusting the pH of the media using NaOH or HCl. […] Agents Chemother., 43: 1383-1386 (1999).
(§3) […] SCY-078 powder was manufactured by Avista, Laboratories, NC. Micafungin and fluconazole were sourced from LGM Pharma.

[2] = tested on: C. albicans isolates; experiment: as above; assay type: cell-based, Candida albicans; details: 50% inhibition, pH 4.5, 24 h, 10 vaginal isolates
Procedure: as §1, §2, §3

[3] = pH 7, 50% inhibition, pH 7.0, 24 h, 10 vaginal isolates
[4] = pH 7, 100% inhibition, pH 7.0, 24 hours, 10 isolates

**Q.** How did the MIC ([1]; pH 5.72, C. glabrata MRL 32626, pH 5.72, 24 hours, read-out: MIC (100% inhibition)) turn out when CC(C)[C@@H](C)[C@@]1(C)CC[C@]2(C)[C@H]3CC[C@@H]4[C@@]5(COC[C@]4(C)[C@@H](OC[C@](C)(N)C(C)(C)C)[C@H](n4ncnc4-c4ccncc4)C5)C3=CC[C@@]2(C)[C@@H]1C(=O)O [SCY-078] was run?
**A.** 1 µg/mL (≈ 1.37 µM)

**Q.** What about the MIC ([1]; pH 5.72, C. glabrata MRL 32993, pH 5.72, 24 hours, read-out: MIC (50% inhibition)) of the same compound?
**A.** 0.5 µg/mL (≈ 0.685 µM)

**Q.** And the MIC ([1]; pH 5.72, C. glabrata MRL 32993, pH 5.72, 24 hours, read-out: MIC (100% inhibition))?
**A.** 1 µg/mL (≈ 1.37 µM)

**Q.** What about the MIC ([1]; pH 5.72, C. glabrata MRL 33204, pH 5.72, 24 hours, read-out: MIC (50% inhibition)) of the same compound?
**A.** 0.5 µg/mL (≈ 0.685 µM)

**Q.** What about the MIC ([1]; pH 5.72, C. glabrata MRL 33204, pH 5.72, 24 hours, read-out: MIC (100% inhibition)) of the same compound?
**A.** 1 µg/mL (≈ 1.37 µM)

**Q.** What about the MIC ([1]; pH 5.72, C. glabrata MRL 33960, pH 5.72, 24 hours, read-out: MIC (50% inhibition)) of the same compound?
**A.** 0.5 µg/mL (≈ 0.685 µM)

**Q.** What about the MIC ([1]; pH 5.72, C. glabrata MRL 33960, pH 5.72, 24 hours, read-out: MIC (100% inhibition)) of the same compound?
**A.** 1 µg/mL (≈ 1.37 µM)

**Q.** And the MIC ([1]; pH 5.72, C. glabrata MRL 33961, pH 5.72, 24 hours, read-out: MIC (50% inhibition))?
**A.** 0.5 µg/mL (≈ 0.685 µM)

**Q.** What about the MIC ([1]; pH 5.72, C. glabrata MRL 33961, pH 5.72, 24 hours, read-out: MIC (100% inhibition)) of the same compound?
**A.** 1 µg/mL (≈ 1.37 µM)

**Q.** And the MIC ([1]; pH 5.72, C. glabrata MRL 34339, pH 5.72, 24 hours, read-out: MIC (50% inhibition))?
**A.** 0.5 µg/mL (≈ 0.685 µM)

**Q.** And the MIC ([1]; pH 5.72, C. glabrata MRL 34339, pH 5.72, 24 hours, read-out: MIC (100% inhibition))?
**A.** 1 µg/mL (≈ 1.37 µM)

**Q.** What about the MIC ([1]; pH 5.72, C. glabrata MRL 34407, pH 5.72, 24 hours, read-out: MIC (50% inhibition)) of the same compound?
**A.** 0.5 µg/mL (≈ 0.685 µM)

**Q.** What about the MIC ([1]; pH 5.72, C. glabrata MRL 34407, pH 5.72, 24 hours, read-out: MIC (100% inhibition)) of the same compound?
**A.** 1 µg/mL (≈ 1.37 µM)

**Q.** And the MIC ([1]; pH 5.72, C. glabrata MRL 34576, pH 5.72, 24 hours, read-out: MIC (50% inhibition))?
**A.** 0.5 µg/mL (≈ 0.685 µM)

**Q.** What about the MIC ([1]; pH 5.72, C. glabrata MRL 34576, pH 5.72, 24 hours, read-out: MIC (100% inhibition)) of the same compound?
**A.** 1 µg/mL (≈ 1.37 µM)

**Q.** What about the MIC50 [1, 3] of the same compound?
**A.** 1 µg/mL (≈ 1.37 µM)

**Q.** And the MIC90 [1, 3]?
**A.** 1 µg/mL (≈ 1.37 µM)

**Q.** What about the MIC50 [1, 4] of the same compound?
**A.** 1 µg/mL (≈ 1.37 µM)

**Q.** What about the MIC90 [1, 4] of the same compound?
**A.** 2 µg/mL (≈ 2.74 µM)

**Q.** What about the MIC ([1]; pH 7, C. glabrata MRL 32075, pH 7.0, 24 hours, read-out: MIC (50% inhibition)) of the same compound?
**A.** 0.5 µg/mL (≈ 0.685 µM)

**Q.** And the MIC ([1]; pH 7, C. glabrata MRL 32075, pH 7.0, 24 hours, read-out: MIC (100% inhibition))?
**A.** 1 µg/mL (≈ 1.37 µM)

**Q.** And the MIC ([1]; pH 7, C. glabrata MRL 32232, pH 7.0, 24 hours, read-out: MIC (50% inhibition))?
**A.** 1 µg/mL (≈ 1.37 µM)

**Q.** And the MIC ([1]; pH 7, C. glabrata MRL 32232, pH 7.0, 24 hours, read-out: MIC (100% inhibition))?
**A.** 1 µg/mL (≈ 1.37 µM)

**Q.** What about the MIC ([1]; pH 7, C. glabrata MRL 32626, pH 7.0, 24 hours, read-out: MIC (50% inhibition)) of the same compound?
**A.** 0.5 µg/mL (≈ 0.685 µM)

**Q.** And the MIC ([1]; pH 7, C. glabrata MRL 32626, pH 7.0, 24 hours, read-out: MIC (100% inhibition))?
**A.** 1 µg/mL (≈ 1.37 µM)

**Q.** What about the MIC ([1]; pH 7, C. glabrata MRL 32993, pH 7.0, 24 hours, read-out: MIC (50% inhibition)) of the same compound?
**A.** 0.5 µg/mL (≈ 0.685 µM)

**Q.** What about the MIC ([1]; pH 7, C. glabrata MRL 32993, pH 7.0, 24 hours, read-out: MIC (100% inhibition)) of the same compound?
**A.** 1 µg/mL (≈ 1.37 µM)

**Q.** And the MIC ([1]; pH 7, C. glabrata MRL 33204, pH 7.0, 24 hours, read-out: MIC (50% inhibition))?
**A.** 1 µg/mL (≈ 1.37 µM)

**Q.** And the MIC ([1]; pH 7, C. glabrata MRL 33204, pH 7.0, 24 hours, read-out: MIC (100% inhibition))?
**A.** 1 µg/mL (≈ 1.37 µM)

**Q.** What about the MIC ([1]; pH 7, C. glabrata MRL 33960, pH 7.0, 24 hours, read-out: MIC (50% inhibition)) of the same compound?
**A.** 0.5 µg/mL (≈ 0.685 µM)

**Q.** What about the MIC ([1]; pH 7, C. glabrata MRL 33960, pH 7.0, 24 hours, read-out: MIC (100% inhibition)) of the same compound?
**A.** 1 µg/mL (≈ 1.37 µM)

**Q.** What about the MIC ([1]; pH 7, C. glabrata MRL 33961, pH 7.0, 24 hours, read-out: MIC (50% inhibition)) of the same compound?
**A.** 1 µg/mL (≈ 1.37 µM)

**Q.** What about the MIC ([1]; pH 7, C. glabrata MRL 33961, pH 7.0, 24 hours, read-out: MIC (100% inhibition)) of the same compound?
**A.** 1 µg/mL (≈ 1.37 µM)

**Q.** And the MIC ([1]; pH 7, C. glabrata MRL 34339, pH 7.0, 24 hours, read-out: MIC (50% inhibition))?
**A.** 1 µg/mL (≈ 1.37 µM)

**Q.** What about the MIC ([1]; pH 7, C. glabrata MRL 34339, pH 7.0, 24 hours, read-out: MIC (100% inhibition)) of the same compound?
**A.** 1 µg/mL (≈ 1.37 µM)

**Q.** What about the MIC ([1]; pH 7, C. glabrata MRL 34407, pH 7.0, 24 hours, read-out: MIC (50% inhibition)) of the same compound?
**A.** 1 µg/mL (≈ 1.37 µM)

**Q.** And the MIC ([1]; pH 7, C. glabrata MRL 34407, pH 7.0, 24 hours, read-out: MIC (100% inhibition))?
**A.** 2 µg/mL (≈ 2.74 µM)

**Q.** And the MIC ([1]; pH 7, C. glabrata MRL 34576, pH 7.0, 24 hours, read-out: MIC (50% inhibition))?
**A.** 1 µg/mL (≈ 1.37 µM)

**Q.** And the MIC ([1]; pH 7, C. glabrata MRL 34576, pH 7.0, 24 hours, read-out: MIC (100% inhibition))?
**A.** 2 µg/mL (≈ 2.74 µM)

**Q.** What about the MIC50 [2] of the same compound?
**A.** < 0.016 µg/mL
